Among the test systems are Leuconostoc lactis; Micrococcus luteus; Listeria innocua; Bacillus cereus; Streptococcus uberis.
Common to all, as to test: ≥ marks a high value that may be exact or a test limit, other limits are often not marked, values filed in µg/mL are converted to µM
In assay [1] the test system is Escherichia coli ATCC 25922.
The test system of assay [2] is Staphylococcus aureus NCTC 8325.
For assay [3], the system named is Candida albicans ATCC 90028.
Assay [4] relates to Escherichia coli ATCC 25726.
The test system of assay [5] is Staphylococcus aureus ATCC 25923.
Assay [6] has as its system Staphylococcus aureus ATCC 29213.
The subject of assay [7] is Staphylococcus epidermidis.

Converted amounts (≈) assume the structure as drawn.

Broadly, the MIC is the least concentration at which growth counts as inhibited. The low end stands for greater potency, the high end for weaker potency. For the compound `CC[C@H](C)[C@@H]1NC(=O)[C@H](C)NC(=O)[C@@H](NC(=O)[C@@H](NC(=O)[C@@H](NC(=O)[C@H](CCCCN)NC(=O)[C@H](C)NC(=O)[C@H](C)NC(=O)[C@H](CCSC)NC(=O)CNC(=O)[C@H](C)NC(=O)[C@@H](NC(=O)[C@@H](NC(=O)[C@@H]2CCCN2C(=O)[C@H](Cc2ccccc2)NC(=O)[C@@H](N)Cc2ccccc2)[C@@H](C)CC)[C@@H](C)CC)C(C)C)[C@@H](C)CC)CSSC[C@@H](C(=O)O)NC(=O)[C@H](CCCCN)NC(=O)[C@H](CCCCN)NC(=O)[C@H]([C@@H](C)O)NC1=O` [FFPIIAGMAAKVICAITKKC], the MIC came out at 13 µM (≈ 27.6 µg/mL) in [1], 3 µM (≈ 6.37 µg/mL) in assay [2] and 3 µM (≈ 6.37 µg/mL) in [3].
For `CC[C@H](C)[C@H](NC(=O)[C@H](CC(C)C)NC(=O)[C@H](CCCN=C(N)N)NC(=O)CNC(=O)[C@@H](NC(=O)[C@@H](NC(=O)[C@@H]1CCCN1C(=O)[C@H](CC(C)C)NC(=O)[C@@H](N)Cc1ccccc1)[C@@H](C)CC)C(C)C)C(=O)N[C@@H](CO)C(=O)NCC(=O)N[C@@H](CC(C)C)C(=O)N[C@@H](CC(C)C)C(N)=O` [FLPIVGRLISGLL], the MIC in [1] worked out at 125 µM (≈ 175 µg/mL); in assay [2], 15 µM (≈ 21 µg/mL).
`CC[C@H](C)[C@@H]1NC(=O)[C@H](C)NC(=O)[C@@H](NC(=O)[C@H](Cc2ccccc2)NC(=O)[C@@H](NC(=O)[C@H](CCCCN)NC(=O)[C@@H]2CCCN2C(=O)[C@H](CC(C)C)NC(=O)[C@H](Cc2ccccc2)NC(=O)[C@H](CCCCN)NC(=O)[C@H](C)NC(=O)[C@H](C)NC(=O)[C@@H](NC(=O)CNC(=O)[C@H](C)NC(=O)[C@@H](NC(=O)[C@@H](NC(=O)[C@@H]2CCCN2C(=O)[C@H](CC(C)C)NC(=O)[C@@H](N)Cc2ccccc2)C(C)C)[C@@H](C)CC)C(C)C)[C@@H](C)CC)CSSC[C@@H](C(=O)O)NC(=O)[C@H](CCCCN)NC(=O)[C@H](CCCCN)NC(=O)[C@H]([C@@H](C)O)NC1=O` [FLPVIAGVAAKFLPKIFCAITKKC]: the results for the MIC in [1], in assay [2] and in assay [3] were 7 µM (≈ 18 µg/mL), 4 µM (≈ 10.3 µg/mL) and 8 µM (≈ 20.6 µg/mL), respectively.
For `CC[C@H](C)[C@H](NC(=O)CNC(=O)[C@H](CC(N)=O)NC(=O)[C@H](CC(C)C)NC(=O)[C@H](CC(C)C)NC(=O)[C@H](CCCCN)NC(=O)CNC(=O)[C@@H](NC(=O)[C@@H](NC(=O)[C@@H]1CCCN1C(=O)[C@H](CC(C)C)NC(=O)[C@@H](NC(=O)[C@@H](NC(=O)[C@@H]1CCCN1C(=O)[C@H](CC(C)C)NC(=O)[C@@H](N)Cc1ccccc1)C(C)C)[C@@H](C)CC)C(C)C)[C@@H](C)CC)C(=O)N[C@@H](CC(C)C)C(N)=O` [FLPVILPVIGKLLNGIL], in that order: over 50 µM, 25 µM (≈ 45.5 µg/mL) and at least 50 µM.
`CC[C@H](C)[C@H](NC(=O)[C@H](C)NC(=O)CN)C(=O)N[C@@H](CCCCN)C(=O)N[C@@H](CC(=O)O)C(=O)N[C@@H](C)C(=O)N[C@@H](CC(C)C)C(=O)N[C@@H](CCCCN)C(=O)NCC(=O)N[C@@H](C)C(=O)N[C@@H](C)C(=O)N[C@@H](CCCCN)C(=O)N[C@H](C(=O)N[C@H](C(=O)N[C@@H](C)C(=O)N[C@H](C(=O)N[C@@H](CCC(=O)O)C(=O)N[C@@H](CC(C)C)C(=O)N[C@@H](CC(C)C)C(=O)N[C@@H](CCCCN)C(=O)N[C@@H](CCCCN)C(=O)N[C@@H](C)C(=O)N[C@@H](CCC(N)=O)C(=O)N[C@H]1CSSC[C@@H](C(=O)O)NC(=O)[C@H]([C@@H](C)O)NC(=O)[C@H](CCCCN)NC(=O)[C@H](CCC(=O)O)NC(=O)[C@H](CC(C)C)NC(=O)[C@H](CCCCN)NC1=O)C(C)C)C(C)C)[C@@H](C)O` [GAIKDALKGAAKTVAVELLKKAQCKLEKTC]: the minimal inhibitory concentration (MIC) in [4] and in [5] was 20 µM (≈ 62.5 µg/mL) throughout.
Turning to `CC(C)C[C@H](NC(=O)[C@H](CC(C)C)NC(=O)[C@H](CC(N)=O)NC(=O)[C@H](C)NC(=O)CNC(=O)[C@H](Cc1ccccc1)NC(=O)[C@H](CCCCN)NC(=O)[C@H](CC(C)C)NC(=O)[C@H](C)NC(=O)[C@H](CCCCN)NC(=O)CNC(=O)[C@H](CC(C)C)NC(=O)[C@@H](NC(=O)[C@H](CO)NC(=O)CNC(=O)[C@H](Cc1ccccc1)NC(=O)CN)C(C)C)C(N)=O` [GFGSVLGKALKFGANLL], the results for the MIC in assay [4] and in assay [5] were at least 50 µM and 12.5 µM (≈ 21.1 µg/mL), respectively.
`CC[C@H](C)[C@H](NC(=O)CNC(=O)[C@H](Cc1ccccc1)NC(=O)[C@H](CC(C)C)NC(=O)CN)C(=O)N[C@@H](CC(C)C)C(=O)NCC(=O)N[C@@H](CO)C(=O)N[C@H](C(=O)N[C@@H](C)C(=O)N[C@@H](CCCCN)C(=O)N[C@@H](Cc1cnc[nH]1)C(=O)N[C@H](C(=O)N[C@@H](CC(C)C)C(=O)N1CCC[C@H]1C(=O)N[C@@H](Cc1cnc[nH]1)C(=O)N[C@H](C(=O)N[C@H](C(=O)N1CCC[C@H]1C(=O)N[C@H](C(=O)N[C@H](C(=O)N[C@@H](C)C(=O)N[C@@H](CCC(=O)O)C(=O)N[C@@H](Cc1cnc[nH]1)C(=O)N[C@@H](CC(C)C)C(N)=O)C(C)C)C(C)C)[C@@H](C)CC)C(C)C)C(C)C)C(C)C` [GLFGILGSVAKHVLPHVIPVVAEHL]: the MIC in the assay with Leuconostoc lactis was 9.6 µM (≈ 25 µg/mL); against Micrococcus luteus it was 7.68 µM (≈ 20 µg/mL); in [6], 9.6 µM (≈ 25 µg/mL); with Listeria innocua it was 9.6 µM (≈ 25 µg/mL); against Bacillus cereus, at least 38.4 µM; in assay [7] it was 9.6 µM (≈ 25 µg/mL). Besides, the MIC (in the assay on Streptococcus uberis; in assay [5]) was 19.2 µM (≈ 50 µg/mL) throughout.
As to `CC[C@H](C)[C@H](NC(=O)CNC(=O)[C@@H](NC(=O)[C@H](CCCN=C(N)N)NC(=O)[C@@H](NC(=O)[C@H](CC(C)C)NC(=O)[C@H](CC(=O)O)NC(=O)[C@H](CCSC)NC(=O)CNC(=O)[C@H](C)NC(=O)[C@H](CCC(=O)O)NC(=O)[C@H](CCCCN)NC(=O)CNC(=O)[C@@H](NC(=O)[C@@H](NC(=O)[C@H](CCCCN)NC(=O)[C@@H](NC(=O)[C@@H](NC(=O)[C@H](CC(N)=O)NC(=O)[C@H](Cc1ccccc1)NC(=O)[C@@H](NC(=O)CNC(=O)[C@@H](NC(=O)[C@H](CCCCN)NC(=O)[C@H](C)NC(=O)[C@H](CCCCN)NC(=O)[C@H](CCCCN)NC(=O)[C@H](CCCCN)NC(=O)[C@H](CC(N)=O)NC(=O)[C@@H](NC(=O)[C@H](CCCCN)NC(=O)[C@@H]1CCCN1C(=O)[C@H](Cc1ccccc1)NC(=O)[C@H](CC(C)C)NC(=O)CN)[C@@H](C)CC)[C@@H](C)O)C(C)C)[C@@H](C)CC)[C@@H](C)CC)[C@@H](C)O)C(C)C)[C@@H](C)CC)[C@@H](C)O)C(=O)N[C@@H](CC(=O)O)C(=O)N[C@H](C(=O)N[C@H](C(=O)NCC(=O)N[C@H]1CSSC[C@@H](C(=O)O)NC(=O)[C@H](CCC(=O)O)NC(=O)CNC(=O)[C@H](CCCCN)NC(=O)[C@H]([C@@H](C)CC)NC(=O)[C@H](CCCCN)NC1=O)[C@@H](C)CC)[C@@H](C)O` [GLFPKINKKKAKTGVFNIIKTVGKEAGMDLIRTGIDTIGCKIKGEC], the results for the MIC in assay [1] and in [2] were 1 µM (≈ 4.93 µg/mL) and 12 µM (≈ 59.2 µg/mL), respectively.
Regarding `CC[C@H](C)[C@H](NC(=O)[C@H](C)NC(=O)[C@H](CC(=O)O)NC(=O)[C@H](CC(C)C)NC(=O)[C@H](CC(C)C)NC(=O)CN)C(=O)N[C@@H](CCCCN)C(=O)N[C@@H](CC(=O)O)C(=O)N[C@H](C(=O)N[C@@H](C)C(=O)N[C@@H](CCC(N)=O)C(=O)N[C@@H](CC(N)=O)C(=O)N[C@@H](CC(C)C)C(=O)N[C@@H](Cc1ccccc1)C(=O)N[C@@H](C)C(=O)N[C@@H](CC(N)=O)C(=O)N[C@H](C(=O)N[C@@H](CC(C)C)C(=O)N[C@@H](CC(=O)O)C(=O)N[C@@H](CCCCN)C(=O)N[C@H](C(=O)N[C@@H](CCCCN)C(=O)N[C@H]1CSSC[C@@H](C(=O)O)NC(=O)[C@H](CCCCN)NC(=O)[C@H]([C@@H](C)O)NC(=O)[C@H](Cc2ccccc2)NC(=O)[C@H](CCCCN)NC1=O)[C@@H](C)CC)C(C)C)[C@@H](C)O` [GLLDAIKDTAQNLFANVLDKIKCKFTKC], the MIC is 50 µM (≈ 155 µg/mL) in [1], at least 50 µM in [2] and at least 50 µM in assay [3].
With `CC[C@H](C)[C@H](NC(=O)[C@H](CCC(=O)O)NC(=O)[C@H](CO)NC(=O)[C@H](C)NC(=O)[C@H](CC(C)C)NC(=O)[C@H](C)NC(=O)[C@H](CCC(N)=O)NC(=O)CNC(=O)[C@H](Cc1ccccc1)NC(=O)[C@H](CCCCN)NC(=O)[C@H](CCCCN)NC(=O)[C@H](C)NC(=O)[C@H](CO)NC(=O)[C@H](Cc1cnc[nH]1)NC(=O)[C@H](CC(C)C)NC(=O)[C@H](Cc1ccccc1)NC(=O)[C@H](CCCCN)NC(=O)CNC(=O)[C@@H](NC(=O)CN)C(C)C)C(=O)N[C@@H](CCSC)C(=O)N[C@@H](CCCCN)C(=O)N[C@@H](CO)C(=O)O` [GVGKFLHSAKKFGQALASEIMKS], the MIC was at least 100 µM in assay [4] and over 100 µM in assay [5].
Consider `CC[C@H](C)[C@H](N)C(=O)N[C@H](C(=O)N[C@@H](CCC(=O)O)C(=O)N[C@@H](CCCCN)C(=O)N[C@@H](CC(C)C)C(=O)N[C@H](C(=O)N[C@@H](CC(N)=O)C(=O)N[C@H](C(=O)N[C@@H](C)C(=O)N[C@@H](CC(C)C)C(=O)NCC(=O)N[C@@H](CC(C)C)C(=O)N[C@@H](CC(C)C)C(=O)N[C@@H](CO)C(=O)NCC(=O)N[C@@H](CC(C)C)C(N)=O)[C@@H](C)O)C(C)C)[C@@H](C)CC` [IIEKLVNTALGLLSGL], for which the MIC in the assay on Leuconostoc lactis is 25 µM (≈ 41.3 µg/mL).
